{"source": "patent US8093221B2", "about": "“Cosmetic and pharmaceutical compositions comprising lauroyl proline and an ester of anhydrohexitol and of an aliphatic carboxylic acid” (Societe d'Exploitation de Produits pour les Industries …, priority 2005, dated 2012)", "assay": "Tests for dissolving the composition in liquid media (water, liquid paraffin, propylene glycol)", "assay_type": "physicochemical", "details": "0.75% by mass of N-lauroyl proline (Composition 3 at 3% by mass)", "procedure": "Composition 3 prepared in the above paragraph is dissolved in water, in liquid paraffin and in propylene glycol, at a proportion of 3% by mass, which corresponds to 0.75% by mass of N-lauroyl proline."}
{"smiles": "CCCCCCCCCCCC(=O)N1CCC[C@H]1C(=O)O", "note": "[Pure N-lauroyl proline, N-lauroyl proline]", "values": [{"measurement": "Temperature at which dispersible in liquid paraffin", "setting": "liquid paraffin", "result": "dispersible at 70 °C"}, {"measurement": "Temperature at which dispersible in propylene glycol", "setting": "propylene glycol", "result": "dispersible at 60 °C"}, {"measurement": "Temperature at which dispersible in water", "setting": "water", "result": "dispersible at 80 °C"}]}
